Source: US12144910B2, “Methods of coating antimicrobial peptides on the biomaterial and the biomaterial coated thereby” (priority 2019, dated 2024)
Values after ≈ are worked out from the molar mass of the structure shown. Where two headings read alike, the source gives them in different places. Non-standard residues stand in square brackets, D forms with d. No end group written: not given here.

Columns and labels:
S. aureus [1] = tested on: S. aureus
Experimental: (§2) Minimum inhibitory concentration (MIC) and minimum bactericidal concentration (MBC). […] The suspended AMPs were then loaded into wells of 96-well microplates and incubated at 37° C. overnight with gentle agitation at 100 rpm. The absorbance was measured by SpectraMax 190 microplate reader at 600 nm. The remaining cfu in the mixture was counted after plating on agar plate. Minimum inhibitory concentration (MIC) was defined as the lowest AMP concentration to keep the solution with the same absorbance as that of culture medium without bacteria. […] Alternatively, the MIC of coated AMPs was also determined. […] The free form AMPs as well as surfactant were dissolved in 200 μl sterile media (cell culture medium or human urine) and used as a control for quantitation. The potency of antimicrobial activity was expressed as the dilution folds to reach the MIC, in which no bacteria grow in the medium. At least three independent experiments were performed to determine the value.

E. coli ATCC 23502 = test: Potency of antimicrobial activity as dilution folds to reach the MIC; format: cell-based; settings: for Potency (x) MIC to E. coli, Serum / Potency (x) MIC to E. coli, Urine: dilution fold, free form, 1× = 8 μg AMP; for Potency (x) MIC to E. coli, Serum: 16 μg PXB and/or 25 μg SDS in 200 μl serum; for Potency (x) MIC to E. coli, Urine: 16 μg PXB and/or 25 μg SDS in 200 μl urine
Experimental: Minimum inhibitory concentration (MIC) and minimum bactericidal concentration (MBC). […] Alternatively, the MIC of coated AMPs was also determined. […] The urine and serum were changed daily. Two μl of the incubation urine or serum being replaced (containing released/free SAAP159+PXB) or its dilutions were dotted onto the top layer of the microbe-containing agar plates and incubated at 37° C. overnight, following which the assessment of formation of growth inhibition zone was carried out. Defined amounts of mixed antimicrobials were used as a standard for the quantitation of the released antimicrobials. The amount of antimicrobial mixture which was able to form visible inhibition zone on the agar plate is defined as one unit of antimicrobial activity. […] The absorbance at 600 nm was then determined by SpectraMax 190 microplate reader. Minimal inhibitory concentration (MIC), which is defined as the concentration of (diluted) sample serum or urine which is able to keep the absorbance of the bacteria-containing media no different to that of media only, was determined. The potency of antimicrobial activity, which is defined as the dilution fold of antimicrobial-containing urine or serum that achieves MIC, was also determined.

[2] = tested on: Human bladder carcinoma cell line (NTUB1); test: Cytotoxicity assay (WST-1); settings: for Potency (x) Cytotoxicity to NTUB1 IC50: dilution fold, free form, 1× = 8 μg AMP, 16 μg PXB and/or 25 μg SDS in 200 μl
Experimental: NTUB1 cells were maintained at 37° C. in a humidified incubator under 5% CO2 atmosphere in RPMI1640 containing 10% FBS, 100 U/ml penicillin and 100 μg/ml streptomycin. The NTUB1 cells were seeded in the respective wells of a 96-well plate at a density of 1.5×10^4 cells/1000 for 24 hr. The cells were further incubated in 2000 free antimicrobial/surfactant or components released from silicone disc after overnight incubation. After 20 hr incubation, 900 of fresh culture medium and 100 of WST-1 agent (Roche, Basel, Switzerland) were added to the drained wells and incubated for two 2 hr before measuring the absorbance by SpectraMax 190 microplate reader at 450 nm. Percent of cytotoxicity was determined using the following formula: % cytotoxicity=[(A450sample−A450positive control)/(A450negative control−A450positive control)]. Positive control was NTUB1 cells only, whereas negative control was medium without cells.

mouse red blood cells = test: Hemolytic assay; settings: dilution fold; free form, 1× = 8 μg AMP, 16 μg PXB and/or 25 μg SDS in 200 μl
Experimental: The blood cells were pelleted and rinsed three times with 10% FBS in RPMI1640, and re-suspended in the same buffer. The erythrocytes (1.5×10^7 cells) were then added to the solution containing free dual AMP/surfactant or overnight released components from silicone discs in 200 μl and incubation at 37° C. for one hr. The supernatants (150 μl) after centrifugation were transferred to 96-well plate for the measurement of the absorbance of released hemoglobin by SpectraMax 190 microplate reader (Molecular Devices, CA, USA) at 414 nm. Percent hemolysis was calculated using the following formula: % hemolysis=[(A414sample−A414medium)/(A4140.1% Triton-X 100−A414medium)]. Zero and 100% hemolysis were determined in medium and 0.1% Triton-X 100, respectively.

[3] = format: physicochemical; parameters: time stable in human urine: unit not given here; settings: for time stable in human urine: coated onto the microplate by SDS, examined under the microscope; for stability in urine: one-day incubation; for time stable in 10% FBS: single AMP coated by SDBS on polystyrene; for time stable in urine: single AMP coated by SDS (two-step) on polystyrene, SDS-PAGE
S. aureus [4] = test: Inhibition zone assay on agar plate; format: cell-based, Staphylococcus aureus; settings: free AMP, 2 μl dotted on agar plate
Experimental: (§1) Inhibition zone. Bacteria were cultured in Luria-Bertani broth and plated on Luria-Bertani agar for E. coli (ATCC 23502) and Pseudomonas aeruginosa (ATCC 27853) at 37° C. Staphylococcus aureus (ATCC 6538P) was cultured and plated in/on tryptic soy broth/agar. Candida albicans (ATCC 14053) were cultured in/on YM broth/agar at 30° C. Five ml of low melting agar (1%) mixed with 100 μl of overnight-cultured bacteria was spread on top of 1% regular agar plate. Two μl of antimicrobial peptides at various concentrations were dotted on the top layer of microbe-containing agar plates and incubated overnight for the development of inhibition zone.

P. aeruginosa 27853 = test: Inhibition zone assay on agar plate; format: cell-based, Pseudomonas aeruginosa; settings: free AMP, 2 μl dotted on agar plate
Experimental: as §1

[5] = free AMP, LB, 3.5 × 10^5 cfu/ml

Experimental for E. coli 23502: as §2

CC[C@H](C)[C@H](NC(=O)[C@H](CCCNC(=N)N)NC(=O)[C@H](CCCNC(=N)N)NC(=O)[C@H](CC(C)C)NC(=O)[C@H](Cc1c[nH]c2ccccc12)NC(=O)[C@H](C)NC(=O)[C@H](CCCCN)NC(=O)[C@@H](NC(=O)[C@H](CCCNC(=N)N)NC(=O)[C@H](CCCNC(=N)N)NC(=O)[C@H](CC(C)C)NC(=O)[C@@H](N)Cc1c[nH]c2ccccc12)[C@@H](C)CC)C(=O)N[C@@H](CCCCN)C(=O)N[C@@H](C)C(=O)O [RRIKA]
MBC (S. aureus [1]): 128 µg/mL (≈ 68.6 µM)
MIC (S. aureus [1]): 64 µg/mL (≈ 34.3 µM)
MBC (E. coli 23502; 23502): 128 µg/mL (≈ 68.6 µM)
MIC (E. coli 23502; 23502): 128 µg/mL (≈ 68.6 µM)

CCCCCCCCCCCCOS(=O)(=O)[O-].[Na+] [SDS, sodium dodecyl sulfate]
Potency (x) MIC to E. coli, Serum (E. coli ATCC 23502): <1 x
Potency (x) MIC to E. coli, Urine (E. coli ATCC 23502): <1 x
bactericidal activity against E. coli 23502 in urine or in 10% FBS (E. coli ATCC 23502; surfactant alone up to maximal amount (14 μg SDS, 25 μg SDBS) in 200 μl): did not exert bactericidal activity
cytotoxicity toward NTUB1 cells ([2]; 25 μg in 200 μl): 99%
Potency (x) Cytotoxicity to NTUB1 IC50 [2]: 1-2 x
cytotoxicity toward NTUB1 cells ([2]; half of the total amount (of 25 μg in 200 μl)): 35%
cytotoxicity toward human bladder cells (NTUB1) (in words) ([2]; maximal amount that may be coated and released (SDS 14 μg; AMP pairs 12 μg each) in 200 μl): low cytotoxicity
Potency (x) Hemolysis of RBC HC50 (mouse red blood cells): 1-2 x

GRFKRFRKKFKKLFKKLSPVIPLLHLG (G[dR][dF][dK][dR][dF][dR][dK][dK][dF][dK][dK][dL][dF][dK][dK][dL][dS][dP][dV][dI][dP][dL][dL][dH][dL]G) [L-BMAP27]
time stable in human urine [3]: at least three

GRFKRFRKKFKKLFKKLSPVIPLLHLG-OH (All in D form) (G[dR][dF][dK][dR][dF][dR][dK][dK][dF][dK][dK][dL][dF][dK][dK][dL][dS][dP][dV][dI][dP][dL][dL][dH][dL]G-OH) [D-BMAP27]
time stable in human urine [3]: at least three

H-FIHHIIGGLFSAGKAIHRLIRRRRR-OH [TP4, antimicrobial peptide Piscidins 4]
stability in urine ([3]; coated by SDBS on microplates): stable in urine
stability in urine ([3]; coated by SOS or SDSn on microplates): not those coated by SOS or SDSn
time stable in human urine [3]: at least three

H-FIHHIIGGLFSAGKAIHRLIRRRRR-OH [TP4-A12,15I]
time stable in 10% FBS [3]: two

H-RRLIRLILRLLR-NH2 [RR12]
antimicrobial activity by inhibition zone (in words) (S. aureus [4]): very active
time stable in 10% FBS [3]: two
MBC (S. aureus [1]): 4 µg/mL
MIC (S. aureus [1]): 4 µg/mL
MBC (E. coli 23502; 23502): 4 µg/mL
MIC (E. coli 23502; 23502): 4 µg/mL

KWKLFKKIGIGAVLKVLKKG-NH2 [T18,19K]
time stable in urine [3]: 6 days
time stable in serum ([3]; single AMP coated by SDS on polystyrene): not stable
MBC (S. aureus [1]; free AMP, TSB, 4 × 10^5 cfu/ml): >512 µg/mL
MIC (S. aureus [1]; free AMP, TSB, 4 × 10^5 cfu/ml): >512 µg/mL
MBC (E. coli 23502; [5]): 64 µg/mL
MIC (E. coli 23502; [5]): 64 µg/mL

LKRLYKRVFRLLKRYYRQLRRPVR-OH [SAAP159]
time stable in human urine [3]: at least three
time stable in urine [3]: 12 days
MBC (S. aureus [1]): >512 µg/mL
MIC (S. aureus [1]): 512 µg/mL
MBC (E. coli 23502; 23502): 64 µg/mL
MIC (E. coli 23502; 23502): 64 µg/mL

Polymyxin B [PXB, reference compound]
Potency (x) MIC to E. coli, Serum (E. coli ATCC 23502): 512 x
Potency (x) MIC to E. coli, Urine (E. coli ATCC 23502): 128 x
Potency (x) Cytotoxicity to NTUB1 IC50 [2]: <1 x
Potency (x) Hemolysis of RBC HC50 (mouse red blood cells): <1 x

RFRRLRKKWRKRLKKI-NH2 [T9W]
antimicrobial activity by inhibition zone (in words) (P. aeruginosa 27853): preferentially killed
time stable in urine [3]: 6 days
MBC (S. aureus [1]): >512 µg/mL
MIC (S. aureus [1]): >512 µg/mL
MBC (E. coli 23502; 23502): >512 µg/mL
MIC (E. coli 23502; 23502): >512 µg/mL

RGLRRLGRKIVHVVKKYLPTVLRIIRIA-NH2 [SMAP28-3]
time stable in human urine [3]: at least three

RGLRRLGRKIVHVVKKYLPTVLRIIRRL-NH2 [SMAP28-3 + 2]
time stable in human urine [3]: at least three
time stable in 10% FBS [3]: one
MBC (S. aureus [1]): 32 µg/mL
MIC (S. aureus [1]): 32 µg/mL
MBC (E. coli 23502; 23502): 8 µg/mL
MIC (E. coli 23502; 23502): 4 µg/mL
